Measured values published in patent US5981525A, “Indole derivatives useful in the treatment of osteoporosis” (SmithKline Beecham Corporation, priority 1995, dated 1999).
Counter-ions that a name gives are not always drawn.

Legend:
[1] = biological target: bafilomycin-sensitive ATPase; assay: Inhibition of bafilomycin-sensitive ATPase in chicken osteoclasts (ATPase assay, Pi release); type: biochemical; conditions: chicken osteoclast membranes
Experimental: Vesicles were prepared from medullar bone obtained from tibiae and femurs of egg-laying hens which were calcium-starved for at least 15 days. Briefly, bone fragments were scraped with a 24 scalpel blade, suspended in 40 ml of isolation medium (0.2 M sucrose, 50 mM KCl, 10 mM Hepes, 1 mM EGTA, 2 mM dithiotheitrol, pH 7.4) and filtered through a 100 μm pore size nylon mesh. The whole procedure was performed at 4° C. After homogenisation in a potter (20 strokes) in 40 ml of isolation medium an initial centrifugation (6,500×gmax 20 min) was performed to remove mitochondria and lysosomes. The supematant was centrifuged at 100,000×gmax for 1 hr and the pellet was collected in 1 ml of isolation medium, divided into 200 μl aliquots, immediately frozen in liquid nitrogen and stored at -80° C. The protein content was determined using a Biorad colourimetric kit according to Bradford [M. Bradford, Anal. Biochem., 72, 248 (1976)]. For the proton transport assay, 5-10 μl of membranes were used.
Purification of osteoclast membranes. 1 ml of crude microsomal vesicles prepared above were applied (about 0.2 ml per tube ) on the top of a sucrose step-gradient consisting of 3.5 ml of 15%, 30% and 45% (w/w) sucrose in isolation medium and centrifuged at 280,000 gmax for 2 hours (SW 41 Ti rotor). After centrifugation the 30-45% sucrose interfaces were collected, diluted approx. 20-fold in isolation medium and pelletted at 100,000 gmax for 1 hour (SW 28 rotor). The pellet was then resuspended in 1 ml of isolation medium, aliquoted and frozen in liquid N2 and stored at -80° C. until used.
Inhibition of bafilomycin-sensitive ATPase activity was assessed in purified membrane vesicles by measuring the release of inorganic phosphate (Pi) during 30 min of incubation at 37° C. in a 96-well plate either in the presence or in the absence of bafilomycin Al. The reaction medium contained 1 mM ATP, 10 mM HEPES-Tris pH 8,50 mM KCl, 5 uM valinomycin, 5 uM nigericin, 1 mM CDTA-Tris, 100 uM ammonium molybdate, 0.2 M sucrose and membranes (20 ug protein/ml). The reaction was initiated by MgSO4 (8-arm pipette) and stopped, after 30 min, by addition of 4 volumes of the malachite green reagent (96-arm pipette) prepared according to Chan [Anal. Biochem. 157, 375 (1986)]. Absorbance at 650 nm was measured after 2 min using a microplate reader. Results are expressed as μmol (Pi)×mg protein^-1 ×hour^-1 and, for each experiment, represent the mean±sem of triplicates.

[2] = tested on: osteoclast proton pump; conditions: ruffled membrane vesicles from avian osteoclasts; cited from earlier work
[3] = tested on: osteoclast cultures; conditions: cited from earlier work

Structure (SMILES)	IC50 [1]	also measured
CO/C(=C\C=C\c1cc2cc(Cl)ccc2[nH]1)C(=O)NCc1ccc(N)cc1 [Example 37]	30 µM	
CO/C(=C\C=C\c1cc2cc(Cl)c(Cl)cc2[nH]1)C(=O)NCCCN(CC(=O)O)CC(=O)O [Example 45, hydrochloride]	14 µM	
CO/C(=C\C=C\c1cc2cc(Cl)c(Cl)cc2[nH]1)C(=O)NCCN1CCCCC1 [Example 53, (2Z,4E)-5-(5,6-Dichloro-2-indolyl)-N-[2-(1-piperidinyl)-ethyl]-2-methoxy-2,4-pentadienamide]	1.2 µM	
CCN(CC)CCCNC(=O)/C(=C/C=C/c1cc2cc(Cl)ccc2[nH]1)OC [Example 26, (2Z,4E)-5-(5-Chloro-2-indolyl)-N-[3-(diethylamino)-propyl]-2-methoxy-2,4-pentadienamide]	3 µM	
[Na+].[Na+].[Na+].[O]=[V]([O-])([O-])[O-] [sodium orthovanadate]		inhibition of proton transport [2]: not inhibited
CO/C(=C\C=C\c1cc2cc(Cl)ccc2[nH]1)C(=O)NCc1cccnc1 [Example 15, (2Z,4E)-5-(5-Chloro-2-indolyl)-2-methoxy-N-(3-pyridylmethyl)-2,4-pentadienamide]	22 µM	
COC(=O)/C(=C/C=C/c1cc2cc(Cl)ccc2[nH]1)OC [Example 4, Methyl (2Z,4E)-5-(5-chloro-2-indolyl)-2-methoxy-2,4-pentadienoate]	7 µM	
CCN1C(=O)C=CC1=O [N-ethylmaleimide]		inhibition of proton transport [2]: inhibited
CO/C(=C\C=C\c1cc2cc(Cl)c(Cl)cc2[nH]1)C(=O)NCCCn1ccnc1 [Example 49, (2Z,4E)-5-(5,6-Dichloro-2-indolyl)-N-[3-(1H-imidazol-1-yl)-propyl]-2-methoxy-2,4-pentadienamide]	4 µM	
CO/C(=C\C=C\c1cc2cc(Cl)c(Cl)cc2[nH]1)C(=O)NC1CC2CCC(C1)N2C (stereo not drawn) [Example 66, (2Z,4E)-6-(5,6-dichloro-2-indolyl)-N-[8-methyl-8-azabicyclo[3.2.1]oct-3β-yl]-2-methoxy-2,4-pentadienamide]	0.1 µM	
Cc1nc2c(OCc3ccccc3)cccn2c1CC#N [SCH 28080]		inhibition of proton transport [2]: not inhibited
CO/C(=C\C=C\c1cc2cc(Cl)c(Cl)cc2[nH]1)C(=O)Nc1cccnc1 [Example 44, (2Z,4E)-5-(5,6-Dichloro-2-indolyl)-2-methoxy-N-(3-pyridyl)-2,4-pentadienamide]	0.62 µM	
CO/C(=C\C=C\c1cc2cc(Cl)c(Cl)cc2[nH]1)C(=O)N[C@@H]1CN2CCC1CC2 [Example 50, (2Z,4E)-N-[(S)-1-Azabicyclo[2.2.2]octan-3-yl]-5-(5,6-dichloro-2-indolyl)-2-methoxy-2,4-pentadienamide]	0.62 µM	
C[C@@H]1O[C@@H](O[C@H]2C[C@@H](O)[C@]3(CO)[C@H]4[C@H](O)C[C@]5(C)[C@@H](C6=CC(=O)OC6)CC[C@]5(O)[C@@H]4CC[C@]3(O)C2)[C@H](O)[C@H](O)[C@H]1O [ouabain]		inhibition of proton transport [2]: not inhibited
CCN(CC)CCCNC(=O)/C(=C/C=C/c1cc2cc(Cl)c(Cl)cc2[nH]1)OC [Example 34, (2Z,4E)-5-(5,6-Dichloro-2-indolyl)-N-[3-(diethylamino)-propyl]-2-methoxy-2,4-pentadienamide]	0.17 µM	
CO/C(=C\C=C\c1cc2cc(Cl)ccc2[nH]1)C(=O)Nc1cccnc1 [Example 33]	4 µM	
COC(=O)/C(=C/C=C/c1cc2cc(Cl)c(Cl)cc2[nH]1)OC [Example 6, Methyl (2Z,4E)-5-(5,6-dichloro-2-indolyl)-2-methoxy-2,4-pentadienoate]	1.1 µM	
CCOC(=O)/C(=C/C=C/c1cc2cc(Cl)ccc2[nH]1)OCC [Example 30, Ethyl(2Z,4E)-5-(5-chloro-2-indolyl)-2-ethoxy-2,4-pentadienoate]	30 µM	
CO/C(=C\C=C\c1cc2cc(Cl)c(Cl)cc2[nH]1)C(=O)NCCCN1CCOCC1 [Example 51, (2Z,4E)-5-(5,6-Dichloro-2-indolyl)-N-[3-(morpholino)propyl]-2-methoxy-2,4-pentadienamide]	1.1 µM	
CCN(CC)CCNC(=O)/C(=C/C=C/c1cc2cc(Cl)c(Cl)cc2[nH]1)OC [Example 46, (2Z,4E)-5-(5,6-Dichloro-2-indolyl)-N-[2-(diethylamino)-ethyl]-2-methoxy-2,4-pentadienamide]	0.59 µM	
COc1ccc2[nH]c([S+]([O-])Cc3ncc(C)c(OC)c3C)nc2c1 (stereo not shown) [omeprazole]		inhibition of proton transport [2]: not inhibited
CO/C(=C\C=C\c1cc2cc(Cl)ccc2[nH]1)C(=O)N(Cc1ccccc1)CC(O)CO (stereo not shown) [Example 20, (2Z,4E)-5-(5-Chloro-2-indolyl)-N-2,3-dihydroxypropyl-2-methoxy-N-phenylmethyl-2,4-pentadienamide]	15 µM	
CO/C1=C\C(C)=C\[C@@H](C)[C@@H](O)[C@@H](C)C/C(C)=C/C=C/[C@H](OC)[C@@H]([C@@H](C)[C@@H](O)[C@H](C)[C@@]2(O)C[C@@H](O)[C@H](C)[C@@H](C(C)C)O2)OC1=O [bafilomycin A1]		inhibition of proton transport [2]: inhibited; inhibition of bone resorption [3]: inhibit bone resorption

More lines, main results first:

IC50 [1]	Structure (SMILES)	also measured
17 µM	CO/C(=C\C=C\c1cc2cc(Cl)c(Cl)cc2[nH]1)C(=O)Nc1ncccn1 [Example 65, (2Z,4E)-5-(5,6-Dichloro-2-indolyl)-2-methoxy-N-(2-pyrimidinyl)-2,4-pentadienamide]	
1.6 µM	CO/C(=C\C=C\c1cc2cc(Cl)c(Cl)cc2[nH]1)C(=O)Nc1ccc(OC)nc1 [Example 57, (2Z,E)-5-(5,6-Dichloro-2-indolyl)-2-methoxy-N-[5-(2-methoxy)pyridyl]-2,4-pentadienamide]	
0.53 µM	CO/C(=C\C=C\c1cc2cc(Cl)c(Cl)cc2[nH]1)C(=O)Nc1ncnc2[nH]ncc12 [Example 71, (2Z,4E)-5-(5,6-Dichloro-2-indolyl)-2-methoxy-N-(1H-pyrazolo[3,4-d]pyrimidin-4-yl)-2,4-pentadienamide]	
0.34 µM	CO/C(=C\C=C\c1cc2cc(Cl)c(Cl)cc2[nH]1)C(=O)NCCC1CCCN1C (stereo not shown) [Example 54, (2Z,4E)-5-(5,6-Dichloro-2-indolyl)-2-methoxy-N-[2-[2-(1-methyl)pyrrolidinyl]ethyl]-2,4-pentadienamide]	
0.13 µM	CO/C(=C\C=C\c1cc2cc(Cl)c(Cl)cc2[nH]1)C(=O)NCCCN1CCCCC1C (stereo not shown) [Example 59, (2Z,4E)-5-(5,6-Dichloro-2-indolyl)-2-methoxy-N[3-[1-(2-methyl)piperidin-yl]-propyl]-2,4-pentadienamide]	
0.12 µM	CO/C(=C\C=C\c1cc2cc(Cl)c(Cl)cc2[nH]1)C(=O)NC1CCN(C)CC1 [Example 70, (2Z,4E)-5-(5,6-Dichloro-2-indolyl)-2-methoxy-N-[4-(1-methyl)-piperidinyl]-2,4-pentadienamide]	
1.3 µM	CO/C(=C\C=C\c1cc2cc(Cl)c(Cl)cc2[nH]1)C(=O)NCCCN1CCN(C)CC1 [Example 67, (2Z,4E)-5-(5,6-Dichloro-2-indolyl)-2-methoxy-N-[3-[1-(4-methyl)piperazinyl]-propyl]-2,4-pentadienamide]	
0.07 µM	CO/C(=C\C=C\c1cc2cc(Cl)c(Cl)cc2[nH]1)C(=O)NC1CC(C)(C)NC(C)(C)C1 [Example 56, (2Z,4E)-5-(5,6-Dichloro-2-indolyl)-2-methoxy-N-[4-(2,2,6,6-tetramethyl)piperidinyl]-2,4-pentadienamide]	
0.85 µM	CO/C(=C\C=C\c1cc2cc(Cl)c(Cl)cc2[nH]1)C(=O)NN1CCN(C)CC1 [Example 60, (2Z,4E)-5-(5,6-Dichloro-2-indolyl)-2-methoxy-N-[1-(4-methylpiperazinyl)]-2,4-pentadienamide]	
1.4 µM	CCN(CCCNC(=O)/C(=C/C=C/c1cc2cc(Cl)c(Cl)cc2[nH]1)OC)Cc1ccccc1 [Example 62]	
